According to patent US5696108A, “Protein kinase C inhibitors” (Eli Lilly and Company, priority 1996, dated 1997):
Structures can show the parent of a compound that is named as a salt.

What was measured:
Conditions in all cases: Table 1
PKC-α = PKC-α (Homo sapiens, UniProt P17252); experiment: PKC Enzyme Assay, alpha isozyme; assay type: biochemical
Description: (§1) PKC enzymes=alpha, beta I, beta II, gamma, delta, epsilon, eta and zeta.
(§2) Assay components in a total volume of 250 μL are as follows:
(§3) For all the enzymes either histone type HL (Worthington) or myelin basic protein is used as substrate. The assay is started by addition of protein kinase C enzyme incubated at 30° C. for 10 minutes and stopped by adding 0.5 mL of cold trichloroacetic acid (Amresco) followed by 100 μL of 1 mg/mL bovine serum albumin (Sigma, St. Louis, Mo.). The precipitate is collected by vacuum filtration on glass fiber filters employing a TOMTEC™ filtration system and quantified by counting in a beta scintillation counter.

PKC-β2 = PKC-β2 (Homo sapiens, UniProt P05771); experiment: PKC Enzyme Assay, beta-2 isozyme; assay type: biochemical
Description: as §1, §2, §3

casein protein kinase II = target: T1, casein protein kinase II (Rattus norvegicus, UniProt P19139); experiment: Casein Protein Kinase II Assay (CK-II); assay type: biochemical
T1 construct: isolated from rat brain homogenate; from tissue; host or cells: rat brain homogenate
Description: Casein Protein Kinase II Assay (CK-II)
The Casein Protein Kinase II Assay is described in Neurochem. […] The assay components are in a total volume of 250 μL: 20 mM Tris-HCl, pH 7.5, 5 mM sodium fluoride, 50 mg/mL Casein (Sigma, St. Louis, Mo.), 10 mM magnesium chloride (Sigma, St. Louis, Mo.), 10 μL DMSO or DMSO/inhibitor and 30 μm (gamma-32P) ATP (DuPont). Initiation of the reaction is performed by addition of casein protein kinase II (isolated from rat brain homogenate), incubated at room temperature for 10 minutes and stopped by the addition of 0.5 mL ice cold Trichloroacetic acid (Amresco) followed by 100 μL of 1 mg/mL bovine serum albumin (Sigma, St. Louis, Mo.). The precipitate is collected by vacuum filtration on glass fiber filters and quantified by counting in a beta scintillation counter.
Assay components in order of addition
10 μL or DMSO or DMSO/inhibitor
25 μL of AT32P in 300 μM magnesium chloride
40 μL of enzyme (undiluted)
Buffer prepared as follows:
(Final volume=3.5 mL: amount of 20 assays)

PKC-β1 = PKC-β1 (Homo sapiens, UniProt P05771); experiment: PKC Enzyme Assay, beta-1 isozyme; assay type: biochemical
Description: as §1, §2, §3

src = target: T2, src (Homo sapiens, UniProt P12931); experiment: Protein Tyrosine Kinase Assay (src); assay type: biochemical
T2 construct: purchased Onogene Science, Inc. PK02 and PK03
Description: Protein Tyrosine Kinase Assay (src)
The Assay components are the following:
4 μL DMSO or DMSO/inhibitor

[1] = target: calcium calmodulin dependent protein kinase; experiment: Calcium Calmodulin Dependent Protein Kinase Assay (CAM); assay type: biochemical, rat
Description: Calcium Calmodulin Dependent Protein Kinase Assay (CAM)
The reaction is initiated by the addition of calcium calmodulin dependent protein kinase (isolated from rat brain homogenate), incubated at room temperature for 10 minutes and stopped by adding 0.5 mL ice cold trichloroacetic acid (Amresco) followed by 100 μL of 1 mg/mL bovine serum albumin (Sigma, St. Louis, Mo.). The precipitate is collected by vacuum filtration on glass fiber filters and quantified by counting in a beta scintillation counter.
25 μL calmodulin (250 μg/mL)
10 μL DMSO or DMSO/inhibitor

[2] = target: T3, cAMP-dependent kinase catalytic subunit (Bos taurus, UniProt P00517); experiment: cAMP-Dependent protein Kinase Catalytic Subunit Assay; assay type: biochemical, bovine
T3 construct: purchased Sigma, St. Louis, Mo; host or cells: bovine heart
Description: cAMP-Dependent protein Kinase Catalytic Subunit Assay (PEA) The Assay components are in a total volume of 250 μL: 20 mM HEPES (Sigma, St. Louis, Mo.) buffer pH 7.5, 200 μg/mL histone type HL (Worthington), 10 mM magnesium chloride (Sigma, St. […] The reaction is initiated by addition of bovine heart cAMP-dependent kinase catalytic subunit (Sigma, St. Louis, Mo.), incubated to 30° C. for 10 minutes and stopped by adding 0.5 mL ice cold Trichloroacetic acid (Amresco) followed by 100 μL of 1 mg/mL bovine serum albumin (Sigma). The precipitate is collected by vacuum filtrated on glass fiber filters employing a TOMTEC™ and quantified by counting in a beta scintillation counter. This assay is done identical to the protein kinase C (PKC) enzyme assay except that no phospholipids or diacylglycerol are employed in the assay and the histone substrate is specific for the cAMP-dependent catalytic subunit enzyme.

T1 sequence (P19139 whole entry): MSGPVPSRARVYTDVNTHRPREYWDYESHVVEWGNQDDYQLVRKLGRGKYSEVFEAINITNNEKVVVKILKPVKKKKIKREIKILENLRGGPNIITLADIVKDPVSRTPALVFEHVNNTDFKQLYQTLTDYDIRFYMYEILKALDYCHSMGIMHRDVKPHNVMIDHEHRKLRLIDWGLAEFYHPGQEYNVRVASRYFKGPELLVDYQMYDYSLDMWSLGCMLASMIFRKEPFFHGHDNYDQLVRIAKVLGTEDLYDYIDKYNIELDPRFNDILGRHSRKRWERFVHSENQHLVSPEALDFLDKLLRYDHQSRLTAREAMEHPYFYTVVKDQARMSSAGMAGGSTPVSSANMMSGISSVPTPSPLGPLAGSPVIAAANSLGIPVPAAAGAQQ
T1 sequence (P67874 2-215 partner limits assumed): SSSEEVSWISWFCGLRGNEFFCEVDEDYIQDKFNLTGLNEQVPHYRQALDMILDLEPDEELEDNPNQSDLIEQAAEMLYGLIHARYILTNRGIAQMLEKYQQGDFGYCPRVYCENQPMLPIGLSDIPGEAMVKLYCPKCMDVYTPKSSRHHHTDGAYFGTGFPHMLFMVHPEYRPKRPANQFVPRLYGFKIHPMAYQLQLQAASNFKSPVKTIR
PKC-β1, sequence (P05771 whole entry): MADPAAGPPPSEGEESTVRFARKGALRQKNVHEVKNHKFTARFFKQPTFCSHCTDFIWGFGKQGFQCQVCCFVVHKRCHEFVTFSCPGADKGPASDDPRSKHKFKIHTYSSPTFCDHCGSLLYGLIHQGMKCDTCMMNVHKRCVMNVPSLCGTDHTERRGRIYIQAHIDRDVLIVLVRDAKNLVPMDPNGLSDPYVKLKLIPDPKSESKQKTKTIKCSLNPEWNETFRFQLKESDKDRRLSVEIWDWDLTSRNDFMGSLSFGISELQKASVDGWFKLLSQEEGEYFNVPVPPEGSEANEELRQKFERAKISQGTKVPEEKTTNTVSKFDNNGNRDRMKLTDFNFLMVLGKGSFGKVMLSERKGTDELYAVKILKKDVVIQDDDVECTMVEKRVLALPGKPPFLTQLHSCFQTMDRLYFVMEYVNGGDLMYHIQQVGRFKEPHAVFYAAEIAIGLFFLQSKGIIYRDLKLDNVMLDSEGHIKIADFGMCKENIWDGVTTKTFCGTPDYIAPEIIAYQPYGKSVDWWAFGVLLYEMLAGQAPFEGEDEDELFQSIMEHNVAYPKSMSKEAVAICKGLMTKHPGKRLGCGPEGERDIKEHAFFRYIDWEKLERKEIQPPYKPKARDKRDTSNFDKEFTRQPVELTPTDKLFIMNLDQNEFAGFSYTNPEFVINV
PKC-β2, sequence (P05771 1-673 isoform P05771-2): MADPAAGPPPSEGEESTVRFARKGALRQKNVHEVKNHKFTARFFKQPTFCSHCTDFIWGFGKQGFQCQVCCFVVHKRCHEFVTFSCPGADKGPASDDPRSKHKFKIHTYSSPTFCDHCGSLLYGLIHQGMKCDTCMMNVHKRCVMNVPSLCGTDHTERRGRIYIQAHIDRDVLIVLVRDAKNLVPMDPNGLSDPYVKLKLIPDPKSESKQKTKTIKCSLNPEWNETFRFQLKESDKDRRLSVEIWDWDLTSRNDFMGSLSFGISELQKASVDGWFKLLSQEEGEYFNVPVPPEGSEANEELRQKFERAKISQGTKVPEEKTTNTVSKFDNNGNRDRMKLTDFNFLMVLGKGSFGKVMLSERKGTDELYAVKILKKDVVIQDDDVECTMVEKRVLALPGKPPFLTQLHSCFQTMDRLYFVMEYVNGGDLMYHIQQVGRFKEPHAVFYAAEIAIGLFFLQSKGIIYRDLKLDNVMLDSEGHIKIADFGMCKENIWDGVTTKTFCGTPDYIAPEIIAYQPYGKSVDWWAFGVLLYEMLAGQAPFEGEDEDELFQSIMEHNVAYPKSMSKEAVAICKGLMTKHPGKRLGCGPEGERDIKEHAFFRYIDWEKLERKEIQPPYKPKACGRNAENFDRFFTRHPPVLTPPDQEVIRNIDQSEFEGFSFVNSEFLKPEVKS
T2 sequence (P12931 whole entry, species assumed): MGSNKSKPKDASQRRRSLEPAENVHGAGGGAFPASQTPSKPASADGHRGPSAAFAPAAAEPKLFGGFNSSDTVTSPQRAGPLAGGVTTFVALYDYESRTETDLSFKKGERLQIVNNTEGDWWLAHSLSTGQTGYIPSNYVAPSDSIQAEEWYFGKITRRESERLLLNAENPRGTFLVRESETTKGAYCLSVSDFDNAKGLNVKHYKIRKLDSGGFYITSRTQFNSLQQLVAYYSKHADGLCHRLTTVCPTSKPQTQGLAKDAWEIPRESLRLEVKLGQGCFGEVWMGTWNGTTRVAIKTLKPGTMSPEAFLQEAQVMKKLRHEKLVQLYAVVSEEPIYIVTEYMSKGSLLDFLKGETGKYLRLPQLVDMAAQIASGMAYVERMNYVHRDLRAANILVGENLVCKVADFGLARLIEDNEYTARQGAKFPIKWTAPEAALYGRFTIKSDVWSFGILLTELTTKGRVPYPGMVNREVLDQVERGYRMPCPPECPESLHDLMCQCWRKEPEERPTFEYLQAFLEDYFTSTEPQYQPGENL

Row | IC50 (PKC-α) | IC50 (PKC-β2) | IC50 (casein protein kinase II) | IC50 (PKC-β1) | IC50 (src) | IC50 [1] | IC50 [2] | SMILES
1 | 1000 nM | 40 nM | > 100000 nM | 50 nM | – | – | – | O=C1NC(=O)C2=C1c1cn(c3ccccc13)CCOCCn1cc2c2ccccc21 [Example 1, 3,4-[(N,N'-1,1'-ethoxyethyl)-bis-(3,3'-indolyl)]-1H-pyrrole-2,5-dione]
2 | – | – | – | – | > 100000 nM | – | – | O=C1NC(=O)C2=C1c1cn(c3ccccc13)CCOC(CO)CCn1cc2c2ccccc21 (stereo not drawn) [Example 3]
3 | – | – | > 100000 nM | – | – | 5000 nM | > 100000 nM | CN(C)C[C@H]1CCn2cc(c3ccccc32)C2=C(C(=O)NC2=O)c2cn(c3ccccc23)CCO1 [Example 5r]
4 | – | – | > 100000 nM | – | – | 8000 nM | > 100000 nM | CN(C)C[C@@H]1CCn2cc(c3ccccc32)C2=C(C(=O)NC2=O)c2cn(c3ccccc23)CCO1 [Example 5s]
5 | 4200 nM | 35 nM | – | 43 nM | – | – | – | O=C1NC(=O)C2=C1c1cn(c3ccccc13)CCOCC(CO)CCn1cc2c2ccccc21 (stereo not drawn) [Example 6]
6 | > 5000 nM | 180 nM | – | 150 nM | – | – | – | O=C1NC(=O)C2=C1c1cn(c3ccccc13)CCOCC(CN1CCCC1)CCn1cc2c2ccccc21 (stereo not drawn) [Example 7, 3,4-[(N,N'-1,1'-(2"-ethoxy-(3"'((O)-methylene)-4"'-(N-pyrrolidino)-butane)-bis-(3,3'-indolyl)]-1(H)-pyrrole-2,5-dione hydrochloride salt]
7 | 2500 nM | 32 nM | – | 37 nM | – | – | – | CN(C)CC1CCn2cc(c3ccccc32)C2=C(C(=O)NC2=O)c2cn(c3ccccc23)CCOC1 (stereo not drawn) [Example 8, 3,4-[(N,N'-1,1'-(2"-ethoxy-(3"'((O)-methylene)-4"'-(N,N-dimethylamino)-butane)-bis-(3,3'-indolyl)]-1(H)-pyrrole-2,5-dione hydrochloride salt]
8 | 19000 nM | 500 nM | > 100000 nM | 600 nM | – | 93000 nM | > 100000 nM | O=C1NC(=O)C2=C1c1cn(c3ccccc13)CCCOC(CN1CCCC1)CCn1cc2c2ccccc21 (stereo not drawn) [Example 12]
9 | > 5000 nM | 940 nM | – | 1900 nM | – | – | – | O=C1NC(=O)C2=C1c1cn(c3ccccc13)CCCOC(CNCc1ccccc1)CCn1cc2c2ccccc21 (stereo not drawn) [Example 13]
10 | > 5000 nM | 830 nM | – | 2900 nM | – | – | – | O=C1NC(=O)C2=C1c1cn(c3ccccc13)CCCOC(CNS(=O)(=O)c1ccccc1)CCn1cc2c2ccccc21 (stereo not drawn) [Example 15]
11 | > 5000 nM | 2300 nM | – | 3200 nM | – | – | – | O=C(NCC1CCn2cc(c3ccccc32)C2=C(C(=O)NC2=O)c2cn(c3ccccc23)CCCO1)OCc1ccccc1 (stereo not drawn) [Example 16]
12 | 3400 nM | 87 nM | > 100000 nM | 83 nM | – | 8800 nM | > 100000 nM | O=C1NC(=O)C2=C1c1cn(c3ccccc13)CCO[C@@H](CNCc1ccccc1)CCn1cc2c2ccccc21 [Example 18r]
13 | 6400 nM | 300 nM | > 100000 nM | 380 nM | – | – | > 100000 nM | O=C1NC(=O)C2=C1c1cn(c3ccccc13)CCO[C@H](CNCc1ccccc1)CCn1cc2c2ccccc21 [Example 18s]
14 | – | 44 nM | – | 170 nM | – | – | – | O=C1NC(=O)C2=C1c1cn(c3ccccc13)CCO[C@H](CNS(=O)(=O)c1ccccc1)CCn1cc2c2ccccc21 [Example 21s]
15 | 1800 nM | 240 nM | – | 300 nM | – | – | – | CN1CCN(C[C@@H]2CCn3cc(c4ccccc43)C3=C(C(=O)NC3=O)c3cn(c4ccccc34)CCO2)CC1 [Example 23s]
16 | 3500 nM | 380 nM | – | 490 nM | – | – | – | O=C1NC(=O)C2=C1c1cn(c3ccccc13)CCO[C@H](CN1CCOCC1)CCn1cc2c2ccccc21 [Example 24s]
17 | 94000 nM | 120 nM | > 100000 nM | 43 nM | – | 22000 nM | > 100000 nM | O=C(NC[C@H]1CCn2cc(c3ccccc32)C2=C(C(=O)NC2=O)c2cn(c3ccccc23)CCO1)OCc1ccccc1 [Example 25r]
18 | 2200 nM | 26 nM | – | 49 nM | – | – | – | O=C1NC(=O)C2=C1c1cn(c3ccccc13)CCOc1ccccc1Cn1cc2c2ccccc21 [Example 27, 3,4-[(N,N'-1,1'-(2"-ethoxy)-benzyl)-bis-(3,3'-indolyl)]-1(H) -pyrrole-2,5-dione hydrochloride]
19 | > 100000 nM | 800 nM | – | 700 nM | – | – | – | O=C(OCc1ccccc1)OCC1CCCn2cc(c3ccccc32)C2=C(C(=O)NC2=O)c2cn(c3ccccc23)CC1 (stereo not drawn) [Example 29, 3,4-[(N,N'-1,1'-(3"-(benzylcarbonate)methylene)hexane)-bis-(3,3'-indolyl)]-1H-pyrrole-2,5-dione]
20 | 240 nM | 8 nM | – | 19 nM | – | – | – | O=C1NC(=O)C2=C1c1cn(c3ccccc13)CCC[C@@H](CO)CCn1cc2c2ccccc21 [Example 31r]
21 | 400 nM | 40 nM | – | 50 nM | 61000 nM | 600 nM | – | NCC1CCCn2cc(c3ccccc32)C2=C(C(=O)NC2=O)c2cn(c3ccccc23)CC1 (stereo not drawn) [Example 33, 3,4-[(N,N'-1,1'-(3"-aminomethylene)-hexane)-bis-(3,3'-indolyl)]-1H-pyrrole-2,5-dione]
22 | 400 nM | – | > 100000 nM | – | – | 41000 nM | > 100000 nM | CN(C)C[C@H]1CCCn2cc(c3ccccc32)C2=C(C(=O)NC2=O)c2cn(c3ccccc23)CC1 [Example 40s, (S)-3,4-[(N,N'-1,1'-(3"-(N,N-dimethylamine)methylene)-hexane)-bis-(3,3'-indolyl)]-1H-pyrrole-2,5-dione hydrochloride salt]
23 | 300 nM | – | > 100000 nM | – | 91000 nM | 3000 nM | – | O=C1NC(=O)C2=C1c1cn(c3ccccc13)CCCC(Cn1ccnc1)CCn1cc2c2ccccc21 (stereo not drawn) [Example 41, 3,4-[(N,N'-1,1'-(3"-(N-imidazole)methylene)-hexane)-bis-(3,3'-indolyl)]-1H-pyrrole-2,5-dione]
24 | > 100000 nM | 2000 nM | – | 2000 nM | – | – | – | O=C1NC(=O)C2=C1c1cn(c3ccccc13)CCCCCCCCn1cc2c2ccccc21 [Example 44]
25 | 49000 nM | 500 nM | – | 500 nM | – | – | – | O=C1NC(=O)C2=C1c1cn(c3ccccc13)CCC(CO)CCn1cc2c2ccccc21 [Example 51, 3,4-[(N,N'-1,1'-(3"-(hydroxy)methylene)pentan)-bis-(3,3'-indolyl)]-1(H)-pyrrole-2,5-dione]
26 | 160 nM | 4 nM | – | 5 nM | – | – | – | CN(C)CC1CCn2cc(c3ccccc32)C2=C(C(=O)NC2=O)c2cn(c3ccccc23)CC1 [Example 54, 3,4-[(N,N'-1,1'-(3"-(N,N-(dimethylamino)methylene)pentanyl)-bis-(3,3'-indolyl)]-1(H)-pyrrole-2,5-dione hydrochloride]
27 | – | 380 nM | – | 410 nM | – | – | – | O=C1NC(=O)C2=C1c1cn(c3ccccc13)CCCOC(CNCc1ccccc1)CCn1cc2c2ccccc21 (stereo not drawn) [Example 55]
